Reference: article PMC12121626, “Synthesis, characterization and biological activity of methotrexate-derived salts in lung cancer cells” (RSC Medicinal Chemistry, 2025)
Values after ≈ are worked out from the molar mass of the structure shown. Like-named read-outs stand apart in the source and are kept apart here. Blank lines part the entries; values can stand above or below the molecule they belong to.

What was measured:
A549 = test: Antiproliferative activity, Cell Titer 96 Aqueous One cell proliferation assay, A549; format: cell-based, human; details: for IC50: A549, 48 h of incubation; for SI (A549): selectivity index, IC50 fibroblasts/IC50 A549
Procedure: (§1) Primary dermal neonatal fibroblasts (PCS-201-010) and lung adenocarcinoma cell lines (A549 and H1975) were acquired from ATCC (Manassas, VA, USA). […] All experiments were conducted at 37 °C, 5% (v/v) CO2, and 99% humidity in the dark. For simplicity, the supplemented media will be referred from now on as DMEM. NSCLC cell lines used in this work represent two different cancer models with different driver mutations[27] (Table 1). […] Doxorubicin (1.5 μM) was used as a positive control and 0.1% (v/v) DMSO was used as a vector control in all biological replicates. After 48 h of incubation, cell viability was measured using the Cell Titer 96® Aqueous One solution cell proliferation assay (Promega, Madison, WI, USA) according to the manufacturer's instructions and procedures described previously.[26,28] The absorbance of the formazan produced was quantified with a Tecan microplate reader (Infinite M200 (Tecan, Mannedorf, Switzerland)) and analysis of the dose–response curves to determine the relative IC50 was performed with GraphPad Prism 8 software (GraphPad Software, La Jolla, CA, USA). The selectivity index (IC50 fibroblasts/IC50 lung cancer cell line) was used as a measurement of the specificity of MTX salts for lung cancer cells.

H1975 = test: Antiproliferative activity, Cell Titer 96 Aqueous One cell proliferation assay, H1975; format: cell-based, human; details: for IC50: H1975, 48 h of incubation; for SI (H1975): selectivity index, IC50 fibroblasts/IC50 H1975
Procedure: as §1

A549 cells = test: Evaluation of apoptosis, annexin V/PI double staining, flow cytometry; format: cell-based, human; details: A549, 48 h of exposure to IC50 (DOX 1.5 μM)
Procedure: A549 cells were seeded on 6-well plates at a density of 2 × 10^5 cells per well and incubated for 48 h with the IC50 of salts ([C12mim]2[MTX], [C10mim]2[MTX], and [C10-3-picoline]2[MTX]) previously determined. Doxorubicin (1.5 μM) was used as a positive control and 0.1% (v/v) DMSO as a vector control. Cells were then detached from the wells and double stained using dead cell apoptosis annexin V (Thermo Fisher Scientific) according to the manufacturer's instructions. The percentage of live cells (unstained), cells in initial apoptosis (stained with annexin V-Alexa Fluor 488), cells in late apoptosis (double stained with annexin V-Alexa Fluor 488 and propidium iodide), or cells in necrosis (stained with propidium iodide) were quantified using an Attune acoustic focusing flow cytometer and the respective software (Thermo Fisher Scientific).
Cellular apoptosis is a process that leads to cell death. Using annexin V and propidium iodide (PI), cells could be divided into live cells, early apoptotic cells, late apoptotic cells, or necrotic cells, based on the differences in plasma membrane of these different stages. PI only enters cells with a permeabilized and/or compromised membrane (late apoptotic and necrotic cells, respectively), while annexin V-FITC binds to phosphatidylserine that translocates from the inner side of the plasma membrane to the outer side, staining cells in initial/late apoptosis.[31]

[1] = Solubility in water, visually determined
Procedure: To study the solubility and stability of the MTX salts, two different assays were performed. To measure the solubility, 1 μL of water was added dropwise to 1 mg of MTX salt and the solubility was visually determined.

[2] = test system: normal primary human dermal fibroblast; test: Cytotoxic effect in normal cells, Cell Titer 96 Aqueous One cell proliferation assay, fibroblasts; format: cell-based; details: 48 h of incubation
Procedure: as §1

[3] = UV-vis spectroscopy stability assay in DMEM biological medium; format: physicochemical; details: 48 h period of the biological assays
[4] = design: method as in doi:10.1016/j.trac.2017.09.009; details: cited from earlier work
[5] = design: method as in PMID 23292116; details: low solubility and low permeability; cited from earlier work

Structure (SMILES): CCCCCCCCCCCCn1cc[n+](C)c1.CCCCCCCCCCCCn1cc[n+](C)c1.CN(Cc1cnc2nc(N)nc(N)c2n1)c1ccc(C(=O)N[C@@H](CCC(=O)[O-])C(=O)[O-])cc1 [[C12mim]2[MTX]]
IC50 (A549): 0.55 ± 0.25 µM
SI (A549) (A549): 2.9
IC50 (H1975): 2.72 ± 0.43 µM
SI (H1975) (H1975): 0.6
Early apoptosis (A549 cells): 16.7 ± 7.3%
Late apoptosis (A549 cells): 10.2 ± 8.3%
Live cells (A549 cells): 72.9 ± 4.1%
Necrosis (A549 cells): 0.1 ± 0.2%
Solubility ([1]; in water at room temperature): 238.1 mg/mL

IC50 (A549): > 50 µM
Structure (SMILES): C[n+]1ccn(CCO)c1 [[C2OHmim][Br], reference compound]

Structure (SMILES): CCn1cc[n+](C)c1.CCn1cc[n+](C)c1.CN(Cc1cnc2nc(N)nc(N)c2n1)c1ccc(C(=O)NC(CCC(=O)[O-])C(=O)[O-])cc1 (stereo not drawn) [[C2MIM]2[MTX]]
IC50 (A549): > 50 µM
Solubility ([1]; in water at room temperature): 500.0 mg/mL

Structure (SMILES): CN(Cc1cnc2nc(N)nc(N)c2n1)c1ccc(C(=O)N[C@@H](CCC(=O)[O-])C(=O)[O-])cc1.[Na+].[Na+] [[Na]2[MTX]] [reference compound]
IC50 (A549): 3.82 ± 0.58 µM
IC50 (H1975): > 50 µM
IC50 [2]: > 50 µM
Solubility ([1]; in water at room temperature): 99.0 mg/mL

IC50 (A549): 0.6 ± 0.21 µM
IC50 (H1975): 10.2 ± 1.01 µM
Structure (SMILES): CCCCCCCCCCCCn1cc[n+](C)c1.[Br-] [[C12mim][Br], reference compound]
SI (A549) (A549): 13.83
SI (H1975) (H1975): 0.8
IC50 [2]: 8.3 ± 0.92 µM

Structure (SMILES): CCCCCCn1cc[n+](C)c1.CCCCCCn1cc[n+](C)c1.CN(Cc1cnc2nc(N)nc(N)c2n1)c1ccc(C(=O)NC(CCC(=O)[O-])C(=O)[O-])cc1 (stereo not drawn) [[C6mim]2[MTX]]
IC50 (A549): > 50 µM

Structure (SMILES): CN(Cc1cnc2nc(N)nc(N)c2n1)c1ccc(C(=O)NC(CCC(=O)[O-])C(=O)[O-])cc1.C[n+]1ccn(CCO)c1.C[n+]1ccn(CCO)c1 (stereo not drawn) [[C2OHmim]2[MTX]]
IC50 (A549): > 50 µM
Solubility ([1]; in water at room temperature): 476.2 mg/mL

Structure (SMILES): CCCCCCCCCC[n+]1cccc(C)c1.[Br-] [[C10-3-picoline][Br], reference compound]
IC50 (A549): 1.03 ± 0.01 µM
SI (A549) (A549): 48.5
IC50 (H1975): 29.3 ± 1.47 µM
IC50 [2]: > 50 µM

Structure (SMILES): CCCCCCCCCC[N+](C)(C)CCO.CCCCCCCCCC[N+](C)(C)CCO.CN(Cc1cnc2nc(N)nc(N)c2n1)c1ccc(C(=O)N[C@@H](CCC(=O)[O-])C(=O)[O-])cc1 [[N10,1,1,2OH]2[MTX]]
IC50 (A549): 19.2 ± 1.28 µM

Structure (SMILES): CN(Cc1cnc2nc(N)nc(N)c2n1)c1ccc(C(=O)N[C@@H](CCC(=O)[O-])C(=O)[O-])cc1.C[N+](C)(C)CCO.C[N+](C)(C)CCO [[Choline]2[MTX]]
IC50 (A549): > 50 µM
Increase in solubility in water [1]: 10 fold
Solubility [1]: 1087.0 mg/mL

Structure (SMILES): CCCCCCCCn1cc[n+](C)c1.CCCCCCCCn1cc[n+](C)c1.CN(Cc1cnc2nc(N)nc(N)c2n1)c1ccc(C(=O)NC(CCC(=O)[O-])C(=O)[O-])cc1 (stereo not drawn) [[C8mim]2[MTX]]
IC50 (A549): > 50 µM

IC50 (A549): 1.1 ± 0.02 µM
IC50 (H1975): 19.2 ± 1.28 µM
Structure (SMILES): CCCCCCCCCCn1cc[n+](C)c1.[Br-] [[C10mim][Br], reference compound]
SI (A549) (A549): 45.5
IC50 [2]: > 50 µM

IC50 (A549): > 50 µM
Structure (SMILES): Cc1ccc[n+](CCO)c1 [[C2OH 3-picoline][Br], reference compound]

Structure (SMILES): CCCCCCCCCCn1cc[n+](C)c1.CCCCCCCCCCn1cc[n+](C)c1.CN(Cc1cnc2nc(N)nc(N)c2n1)c1ccc(C(=O)N[C@@H](CCC(=O)[O-])C(=O)[O-])cc1 [[C10mim]2[MTX]]
IC50 (A549): 1.71 ± 0.23 µM
SI (A549) (A549): 4.5
IC50 (H1975): 14.9 ± 1.17 µM
SI (H1975) (H1975): 0.5
IC50 [2]: 7.61 ± 0.88 µM
Early apoptosis (A549 cells): 14.9 ± 5.0%
Late apoptosis (A549 cells): 10.7 ± 8.1%
Live cells (A549 cells): 73.2 ± 5.0%
Necrosis (A549 cells): 1.1 ± 1.8%
Solubility ([1]; in water at room temperature): 312.5 mg/mL

Structure (SMILES): CN(Cc1cnc2nc(N)nc(N)c2n1)c1ccc(C(=O)NC(CCC(=O)[O-])C(=O)[O-])cc1.Cn1cc[n+](CCCCCCCCCCCCn2cc[n+](C)c2)c1 (stereo not drawn) [[MIMC12MIM][MTX]]
IC50 (A549): 12.4 ± 1.09 µM

IC50 (A549): > 50 µM
Structure (SMILES): C[N+](C)(C)CCO.[Cl-] [[Choline][Cl], reference compound]

Structure (SMILES): CCCCCCCCCCCC[N+](C)(C)CCO.CCCCCCCCCCCC[N+](C)(C)CCO.CN(Cc1cnc2nc(N)nc(N)c2n1)c1ccc(C(=O)NC(CCC(=O)[O-])C(=O)[O-])cc1 (stereo not drawn) [[N12,1,1,2OH]2[MTX]]
IC50 (A549): 8.55 ± 0.93 µM

IC50 (A549): > 50 µM
Structure (SMILES): CCn1cc[n+](C)c1 [[C2MIM][Br], reference compound]

Structure (SMILES): CN(Cc1cnc2nc(N)nc(N)c2n1)c1ccc(C(=O)N[C@@H](CCC(=O)O)C(=O)O)cc1 [MTX, Methotrexate]
IC50 (A549; Homo sapiens): > 50 µM
Solubility [1]: 0.01 mg/mL (≈ 22 µM)
Stability in DMEM biological medium [3]: stability was retained
pKa (first acidic proton, carboxylic acid) [4]: 2.9
pKa (second acidic proton, carboxylic acid) [4]: 4.6
Class in the biopharmaceutical classification system [5]: class IV

Structure (SMILES): CCCCCCCCCC[n+]1cccc(C)c1.CCCCCCCCCC[n+]1cccc(C)c1.CN(Cc1cnc2nc(N)nc(N)c2n1)c1ccc(C(=O)N[C@@H](CCC(=O)[O-])C(=O)[O-])cc1 [[C10-3-picoline]2[MTX]]
IC50 (A549): 0.94 ± 0.03 µM
IC50 in the cancer cell line relative to [Na]2[MTX] (A549; A549, compared to [Na]2[MTX]): 4.06 fold
SI (A549) (A549): 11.3
IC50 (H1975): 29.1 ± 1.46 µM
SI (H1975) (H1975): 0.4
IC50 [2]: 10.6 ± 1.03 µM
Early apoptosis (A549 cells): 14.9 ± 6.5%
Late apoptosis (A549 cells): 9.4 ± 5.6%
Live cells (A549 cells): 75.3 ± 3.0%
Necrosis (A549 cells): 0.02 ± 0.02%
Solubility ([1]; in water at room temperature): 138.9 mg/mL

Structure (SMILES): COc1cccc2c1C(=O)c1c(O)c3c(c(O)c1C2=O)C[C@@](O)(C(=O)CO)C[C@@H]3O[C@H]1C[C@H](N)[C@H](O)[C@H](C)O1 [DOX, Doxorubicin, reference compound]
Early apoptosis (A549 cells): 9.3 ± 7.1%
Late apoptosis (A549 cells): 65.25 ± 30.4%
Live cells (A549 cells): 1.7 ± 1.8%
Necrosis (A549 cells): 23.7 ± 26.0%

Structure (SMILES): CN(Cc1cnc2nc(N)nc(N)c2n1)c1ccc(C(=O)N[C@@H](CCC(=O)[O-])C(=O)[O-])cc1.Cc1ccc[n+](CCO)c1.Cc1ccc[n+](CCO)c1 [[C2OH-3-picoline]2[MTX]]
IC50 (A549): > 50 µM
Solubility ([1]; in water at room temperature): 192.3 mg/mL
